Measured values taken from patent US20020026053A1, “Novel 3-(substituted) -2- indolinones compounds and use thereof as inhibitors of protein kinase activity” (priority 1997, published 2002).

Target: T1, EGFR (Homo sapiens, UniProt P00533)
T1 construct: endogenous in cells; host or cells: A431 cells (lysate, captured with SUMO1 anti-EGFR antibody)
Test: Biochemical EGFR Assay
Design: concentration or dose not given beside the values
Settings: protocol P.167
Outline: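 EGFR from A431 lysate was captured on anti-EGFR-coated wells and preincubated 30 min with compound (diluted 1:10 in TBS) at room temperature. After ATP/MnCl2 phosphorylation for 5 min, the reaction was stopped with EDTA. Phosphotyrosine was detected by ELISA (anti-phosphotyrosine, peroxidase conjugate, ABTS) at 410 nm.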

T1 sequence (P00533 25-1210): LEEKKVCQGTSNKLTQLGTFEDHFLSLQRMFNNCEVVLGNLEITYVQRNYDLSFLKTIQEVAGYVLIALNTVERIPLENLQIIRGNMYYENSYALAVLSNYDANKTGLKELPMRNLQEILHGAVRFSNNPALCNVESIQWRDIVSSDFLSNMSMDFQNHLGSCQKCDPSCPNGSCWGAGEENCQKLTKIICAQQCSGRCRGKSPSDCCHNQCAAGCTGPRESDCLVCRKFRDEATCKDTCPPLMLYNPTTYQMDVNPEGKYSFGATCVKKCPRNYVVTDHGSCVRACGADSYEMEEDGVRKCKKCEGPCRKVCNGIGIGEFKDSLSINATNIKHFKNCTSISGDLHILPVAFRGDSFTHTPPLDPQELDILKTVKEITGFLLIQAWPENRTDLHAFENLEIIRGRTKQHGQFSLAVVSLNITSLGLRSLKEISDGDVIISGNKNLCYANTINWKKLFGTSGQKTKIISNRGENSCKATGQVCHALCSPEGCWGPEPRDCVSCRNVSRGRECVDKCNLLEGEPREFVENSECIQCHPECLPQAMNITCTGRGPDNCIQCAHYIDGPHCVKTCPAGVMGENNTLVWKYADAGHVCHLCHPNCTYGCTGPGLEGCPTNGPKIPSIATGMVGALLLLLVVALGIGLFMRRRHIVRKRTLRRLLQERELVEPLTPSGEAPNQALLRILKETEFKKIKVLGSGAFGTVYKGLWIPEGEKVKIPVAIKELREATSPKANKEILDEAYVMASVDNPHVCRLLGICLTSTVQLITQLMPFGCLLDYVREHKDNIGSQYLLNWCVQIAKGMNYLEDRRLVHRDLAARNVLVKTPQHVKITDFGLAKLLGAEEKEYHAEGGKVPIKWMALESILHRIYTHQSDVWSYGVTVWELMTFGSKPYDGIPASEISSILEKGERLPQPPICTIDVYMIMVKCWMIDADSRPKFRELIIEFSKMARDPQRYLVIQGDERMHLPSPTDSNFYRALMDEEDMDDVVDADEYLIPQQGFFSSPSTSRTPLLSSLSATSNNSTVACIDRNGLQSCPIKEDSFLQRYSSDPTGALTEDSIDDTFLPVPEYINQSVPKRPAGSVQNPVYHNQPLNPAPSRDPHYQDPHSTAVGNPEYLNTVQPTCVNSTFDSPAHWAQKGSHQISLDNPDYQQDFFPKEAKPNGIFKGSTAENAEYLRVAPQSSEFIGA

| SMILES | Biochem EGFR % Inhibition (P.167) |
| --- | --- |
| Cc1c(Br)cc(Br)c2c1C(=Cc1cccc(Oc3ccc(Cl)c(Cl)c3)c1)C(=O)N2 [10738/H03] | 16.7% |
| COc1ccc(C=C2C(=O)Nc3c(Br)cc(Br)c(C)c32)cc1O [10738/H04] | −7.0% |
| Cc1c(Br)cc(Br)c2c1C(=Cc1cc(O)ccc1[N+](=O)[O-])C(=O)N2 [10738/H05] | 5.5% |
| Cc1c(Br)cc(Br)c2c1C(=Cc1cccc(O)c1O)C(=O)N2 [10738/H06] | −53.8% |
